# Assay results reported in patent US11179501B2, “Bone morphogenetic protein pathway activation, compositions for ossification, and methods related thereto” (Emory University, priority 2011, dated 2021).
# Structures can show the parent of a compound that is named as a salt.
# Tests used:
# Sprague Dawley rats = assay: Collagen disc implantation with macrolides in rat ectopic model; type: in vivo; design: Ave. (Xray score): scale not given here; conditions: for Ave. (Xray score) / Results (bone, animals with bone of 4): 100 ul, collagen, no BMP-2, 4 weeks; for De novo bone formation: local, collagen disc, chest implant, absence of BMP-2, 4 weeks
# Text: Sprague Dawley rats about 5-6 weeks of age were chest implanted with a collagen disc (diameter of 1.0 cm and height of 2.0 mm; total volume of 150 cubic millimeters) and doses of macrolides in the absence of BMP-2. After 4 weeks the rats were sacrificed and evaluated for bone growth. […] In certain embodiments, the disclosure contemplates local bone formation for fracture repair, segmental bone defects, spine fusion, bone grafting, and regional bone enhancement for osteopenic bones before they fracture (e.g. hip, vertebral body, etc) by deliver locally to induce local bone formation.
# C2C12 cells [1] = assay: Alkaline phosphatase (ALP) assay: potentiation of BMP-2-induced ALP activity; conditions: C2C12 cells; for cell lifting from culture plates: ALP assay
# Method: (§1) Their activity was evaluated by determining the potentiation of alkaline phosphatase activity in sub-optimal doses of BMP in the presence or absence of exogenously added noggin.
# The BMP-potentiating activities of compounds may be evaluated by monitoring several markers of the osteoblastic phenotype corresponding to various time points during phenotype differentiation of C2C12 cells towards terminally differentiated osteoblasts.
# The C2C12 cells at passages 5 to 10 were subcultured in T-75 cm^2 flasks in DMEM supplemented with 10% FBS at 37° C. in 5% CO2 with humidification. When the flasks reached 80% confluence, the cells were trypsinized and seeded in triplicate.
# The C2C12 cells were plated at 200,000 cells/well in 6-well plates and grown overnight in DMEM containing 10% FBS. On day 2, the culture medium was replaced with DMEM containing 2% FBS and the cells were treated with various concentrations of compound for 24 hours. On day 3, the culture medium was replaced with DMEM containing 2% FBS and the cells were treated with 50 ng/ml of BMP-2 and various concentrations of compound for 72 hours. The cells were washed with phosphate-buffered saline (PBS) and lysed by addition of lysis buffer (10 mM Tris-HCl pH 8.0, 1 mM MgCl2 and 1.0% Triton X-100). The cell lysates were centrifuged for 5 minutes at 13,000×g. The supernatant was removed and the aliquots were assayed for ALP activity and protein amount. The ALP activity was measured in triplicate using an ALP assay kit (Sigma-Aldrich, St. Louis, Mo.) in microtiter plates. The protein amount was determined with Bio-Rad protein assay reagent (Bio-Rad, Hercules, Calif.) using bovine serum albumin (BSA) as a standard. The ALP activity (nmoles of p-nitrophenol per ml) was normalized to the protein amount (nmoles of p-nitrophenol per μg).
# C2C12 cells [2] = assay: BMP-Noggin competitive alkaline phosphatase (ALP) assay; type: cell-based, Mouse; conditions: BMP-Noggin competitive ALP assay, low cell number and low yield of protein
# Method: as §1
# Mouse C2C12 cells and Dulbecco's modified Eagle's medium (DMEM) were purchased from ATCC (Manassas, Va.). The non-heat inactivated fetal bovine serum (FBS) was purchased from HyClone Laboratories, Inc. (Logan, Utah). The C2C12 cells at passages 5 to 10 were subcultured in T-75 cm^2 flasks in DMEM supplemented with 10% FBS at 37° C. in 5% CO2 with humidification. When the flasks reached 80% confluence, the cells were trypsinized and seeded in triplicate.
# The C2C12 cells were plated at 200,000 cells/well in 6-well plates and grown overnight in DMEM containing 10% FBS. On day 2, the culture medium was replaced with DMEM containing 2% FBS and the cells were treated with 90-100 ng/ml of BMP-2 (as noted in each experiment), various concentrations of compound, and 100-120 ng/ml of noggin (as noted in each experiment) for 72 hours. The cells were washed with phosphate-buffered saline (PBS) and lysed by addition of lysis buffer (10 mM Tris-HCl pH 8.0, 1 mM MgCl2 and 1.0% Triton X-100). The cell lysates were centrifuged for 5 minutes at 13,000×g. The supernatant was removed and the aliquots were assayed for ALP activity and protein amount. The ALP activity was measured in triplicate using an ALP assay kit (Sigma-Aldrich, St. Louis, Mo.) in microtiter plates. The protein amount was determined with Bio-Rad protein assay reagent (Bio-Rad, Hercules, Calif.) using bovine serum albumin (BSA) as a standard. The ALP activity (nmoles of p-nitrophenol per ml) was normalized to the protein amount (nmoles of p-nitrophenol per μg).
smiles,measurement,setting,value
"CO[C@H]1C[C@@H]2CC[C@@H](C)[C@@](O)(O2)C(=O)C(=O)N2CCCC[C@H]2C(=O)O[C@H]([C@H](C)C[C@@H]2CC[C@@H](OCCO)[C@H](OC)C2)CC(=O)[C@H](C)/C=C(\C)[C@@H](O)[C@@H](OC)C(=O)[C@H](C)C[C@H](C)/C=C/C=C/C=C/1C [Everolimus, everolimus]",Ave. (Xray score),Sprague Dawley rats; dose 10 mM,0
same,"Results (bone, animals with bone of 4)",Sprague Dawley rats; dose 10 mM,No bone (0 of 4)
same,Ave. (Xray score),Sprague Dawley rats; dose 15 mM,2.5
same,"Results (bone, animals with bone of 4)",Sprague Dawley rats; dose 15 mM,Bone (3 of 4)
same,Ave. (Xray score),Sprague Dawley rats; dose 20 mM,3.75
same,"Results (bone, animals with bone of 4)",Sprague Dawley rats; dose 20 mM,Bone (4 of 4)
same,Ave. (Xray score),Sprague Dawley rats; dose 25 mM,4.75
same,"Results (bone, animals with bone of 4)",Sprague Dawley rats; dose 25 mM,Bone (4 of 4)
same,Ave. (Xray score),Sprague Dawley rats; dose 30 mM,3.75
same,"Results (bone, animals with bone of 4)",Sprague Dawley rats; dose 30 mM,Bone (3 of 4)
same,Ave. (Xray score),Sprague Dawley rats; dose 35 mM,4.75
same,"Results (bone, animals with bone of 4)",Sprague Dawley rats; dose 35 mM,Bone (4 of 4)
same,De novo bone formation,Sprague Dawley rats,De novo bone formation is demonstrated locally
CCN(CC)CCNC(=O)c1c(C)[nH]c(/C=C2\C(=O)Nc3ccc(F)cc32)c1C [Sunitinib],Fold-increase of BMP-induced ALP (over BMP alone control),C2C12 cells [1],4.0
CC[C@@]1(O)C(=O)OCc2c1cc1n(c2=O)Cc2cc3c(CN(C)C)c(O)ccc3nc2-1 [Topotecan],Fold-increase of BMP-induced ALP (over BMP alone control),C2C12 cells [1],4.0
CC[C@@]1(O)C(=O)OCc2c1cc1n(c2=O)Cc2cc3c(N)cccc3nc2-1 [9-aminocamptothecin],Fold-increase of BMP-induced ALP (over BMP alone control),C2C12 cells [1],10.0
"CC[C@H](C)C(=O)O[C@H]1C[C@@H](C)C=C2C=C[C@H](C)[C@H](CC[C@@H]3C[C@@H](O)CC(=O)O3)[C@H]21 [Lovastatin, lovastatin]",cell lifting from culture plates,C2C12 cells [2],caused cell lifting from culture plates
"O=C1c2c(O)ccc(O)c2C(=O)c2c(NCCNCCO)ccc(NCCNCCO)c21 [Mitoxantrone, mitoxantrone]",cell lifting from culture plates,C2C12 cells [1],caused cell lifting from culture plates
same,Fold-increase of BMP-induced ALP (over BMP alone control),C2C12 cells [1],4.0
COc1cccc2c1C(=O)c1c(O)c3c(c(O)c1C2=O)C[C@@](O)(C(=O)CO)C[C@@H]3O[C@H]1C[C@H](N)[C@H](O)[C@H](C)O1 [Doxorubicin],Fold-increase of BMP-induced ALP (over BMP alone control),C2C12 cells [1],4.0
Nc1ccn([C@@H]2O[C@H](CO)[C@@H](O)[C@@H]2O)c(=O)n1 [Cytarabine HCl],Fold-increase of BMP-induced ALP (over BMP alone control),C2C12 cells [1],2.0
"C#CC(c1ccccc1)(c1ccccc1)n1ccnc1 [1-(1,1-diphenylprop-2-yn-1-yl)-1H-imidazole]",Fold-increase of BMP-induced ALP (over BMP alone control),C2C12 cells [1],7.0
"Clc1ccc(COC(Cn2ccnc2)c2ccc(Cl)cc2Cl)cc1 (centres unmarked) [Econazole nitrate, econazole nitrate]",cell lifting from culture plates,C2C12 cells [1],caused cell lifting from culture plates
"CCC(C)n1ncn(-c2ccc(N3CCN(c4ccc(OCC5COC(Cn6cncn6)(c6ccc(Cl)cc6Cl)O5)cc4)CC3)cc2)c1=O (centres unmarked) [itraconazole, 4-(4-(4-(4((2((1H-1,2,4-triazol-1-yl)methyl)-2-(2,4-dichlorophenyl)-1,3-dioxolan-4-yl)methoxy)phenyl)piperazin-1-yl)phenyl)-1-(sec-butyl)-1H-1,2,4-triazol-5(4H)-one]",cell lifting from culture plates,C2C12 cells [1],caused cell lifting from culture plates
Nc1ncn([C@H]2C[C@H](O)[C@@H](CO)O2)c(=O)n1 [Decitabine],Fold-increase of BMP-induced ALP (over BMP alone control),C2C12 cells [1],6.0
CCCCC(=O)OCC(=O)[C@]1(O)Cc2c(O)c3c(c(O)c2[C@@H](O[C@H]2C[C@H](NC(=O)C(F)(F)F)[C@H](O)[C@H](C)O2)C1)C(=O)c1c(OC)cccc1C3=O [Valrubicin],Fold-increase of BMP-induced ALP (over BMP alone control),C2C12 cells [1],3.0
CCOC(=O)C1=C(C)NC(C)=C(C(=O)OC)C1c1cccc(Cl)c1Cl (centres unmarked) [felodipine],cell lifting from culture plates,C2C12 cells [2],caused cell lifting from culture plates
COC(=O)Nc1nc2cc(C(=O)c3ccc(F)cc3)ccc2[nH]1 [flubendazole],cell lifting from culture plates,C2C12 cells [1],caused cell lifting from culture plates
COc1cccc2c1C(=O)c1c(O)c3c(c(O)c1C2=O)C[C@@](O)(C(C)=O)C[C@@H]3O[C@H]1C[C@H](N)[C@H](O)[C@H](C)O1 [Daunorubicin hydrochloride],cell lifting from culture plates,C2C12 cells [1],caused cell lifting from culture plates
same,Fold-increase of BMP-induced ALP (over BMP alone control),C2C12 cells [1],7.0
C=C1/C(=C\C=C2/CCC[C@]3(C)[C@@H]([C@H](C)CCCC(C)(C)O)CC[C@@H]23)C[C@@H](O)C[C@@H]1O [calcitriol],cell lifting from culture plates,C2C12 cells [1],caused cell lifting from culture plates
"Clc1ccc(CON=C(Cn2ccnc2)c2ccc(Cl)cc2Cl)c(Cl)c1 [oxiconazole nitrate, 1-(2,4-dichlorophenyl)-2-(1H-imidazol-1-yl)ethanone O-(2,4-dichlorobenzyl) oxime]",cell lifting from culture plates,C2C12 cells [2],caused cell lifting from culture plates
COc1cc([C@@H]2c3cc4c(cc3[C@@H](O[C@@H]3O[C@@H]5CO[C@@H](c6cccs6)O[C@H]5[C@H](O)[C@H]3O)[C@H]3COC(=O)[C@H]23)OCO4)cc(OC)c1O [Teniposide],Fold-increase of BMP-induced ALP (over BMP alone control),C2C12 cells [1],7.0
"C=C1/C(=C\C=C2/CCC[C@]3(C)[C@@H]([C@H](C)/C=C/[C@@H](O)C4CC4)CC[C@@H]23)C[C@@H](O)C[C@@H]1O [Calcipotriol, calcipotriol]",cell lifting from culture plates,C2C12 cells [1],caused cell lifting from culture plates
CCC1=C[C@@H]2CN(C1)Cc1c([nH]c3ccccc13)[C@@](C(=O)OC)(c1cc3c(cc1OC)N(C)[C@H]1[C@@](O)(C(=O)OC)[C@H](OC(C)=O)[C@]4(CC)C=CCN5CC[C@]31[C@@H]54)C2 [Vinorelbine tartrate],cell lifting from culture plates,C2C12 cells [1],caused cell lifting from culture plates
same,Fold-increase of BMP-induced ALP (over BMP alone control),C2C12 cells [1],4.0
"CC(=O)N1CCN(c2ccc(OC[C@H]3CO[C@](Cn4ccnc4)(c4ccc(Cl)cc4Cl)O3)cc2)CC1 [Ketoconazole, 1-(4-(4-(((2R,4S)-2-((1H-imidazol-1-yl)methyl)-2-(2,4-dichlorophenyl)-1,3-dioxolan-4-yl)methoxy)phenyl)piperazin-1-yl)ethanone]",cell lifting from culture plates,C2C12 cells [2],caused cell lifting from culture plates
CO[C@@]12[C@H](COC(N)=O)C3=C(C(=O)C(C)=C(N)C3=O)N1C[C@@H]1N[C@@H]12 [Mitomycin C],Fold-increase of BMP-induced ALP (over BMP alone control),C2C12 cells [1],12.0
"CCCSc1ccc2nc(NC(=O)OC)[nH]c2c1 [Albendazole, albendazole]",cell lifting from culture plates,C2C12 cells [1],caused cell lifting from culture plates
"Nc1nc2ccc(Cl)cc2c2nc(-c3ccco3)nn12 [CGS 15943, 9-chloro-2-(furan-2-yl)[1,2,4]triazolo[1,5-c]quinazolin-5-amine]",cell lifting from culture plates,C2C12 cells [2],caused cell lifting from culture plates
O=c1[nH]cc(F)c(=O)[nH]1 [5-fluorouracil],cell lifting from culture plates,C2C12 cells [1],caused cell lifting from culture plates
CC[C@]1(O)C[C@H]2CN(CCc3c([nH]c4ccccc34)[C@@](C(=O)OC)(c3cc4c(cc3OC)N(C=O)[C@H]3[C@@](O)(C(=O)OC)[C@H](OC(C)=O)[C@]5(CC)C=CCN6CC[C@]43[C@@H]65)C2)C1 [Vincristine],Fold-increase of BMP-induced ALP (over BMP alone control),C2C12 cells [1],5.0
"COC1CC2CCC(C)C(O)(O2)C(=O)C(=O)N2CCCCC2C(=O)OC(C(C)CC2CCC(O)C(OC)C2)CC(=O)C(C)C=C(C)C(O)C(OC)C(=O)C(C)CC(C)C=CC=CC=C1C (centres unmarked) [Sirolimus, 9,10,12,13,14,21,22,23,24,25,26,27,32,33,34,34a-Hexadecahydro-9,27-dihydroxy-3-[2-[4-hydroxy-3-methoxycyclohexyl]-1-methylethyl]-10,21-dimethoxy-6,8,12,14,20,26-hexamethyl-23,27-epoxy-3H-pyrido[2,1-c][1,4]oxaazacyclohentriacontine-1,5,11,28,29(4H,6H,31H)-pentone]",Ave. (Xray score),Sprague Dawley rats; dose 10 mM,0.25
same,"Results (bone, animals with bone of 4)",Sprague Dawley rats; dose 10 mM,Bone (1 of 4)
same,Ave. (Xray score),Sprague Dawley rats; dose 15 mM,0.5
same,"Results (bone, animals with bone of 4)",Sprague Dawley rats; dose 15 mM,Bone (1 of 4)
same,Ave. (Xray score),Sprague Dawley rats; dose 20 mM,0.75
same,"Results (bone, animals with bone of 4)",Sprague Dawley rats; dose 20 mM,Bone (1 of 4)
same,Ave. (Xray score),Sprague Dawley rats; dose 25 mM,2.75
same,"Results (bone, animals with bone of 4)",Sprague Dawley rats; dose 25 mM,Bone (3 of 4)
same,Ave. (Xray score),Sprague Dawley rats; dose 30 mM,3.5
same,"Results (bone, animals with bone of 4)",Sprague Dawley rats; dose 30 mM,Bone (3 of 4)
same,Ave. (Xray score),Sprague Dawley rats; dose 35 mM,4.25
same,"Results (bone, animals with bone of 4)",Sprague Dawley rats; dose 35 mM,Bone (4 of 4)
same,De novo bone formation,Sprague Dawley rats,De novo bone formation is demonstrated locally
"CCCCCCNC(=O)n1cc(F)c(=O)[nH]c1=O [carmofur, 5-fluoro-N-hexyl-2,4-dioxo-3,4-dihydropyrimidine-1(2H)-carboxamide]",cell lifting from culture plates,C2C12 cells [1],caused cell lifting from culture plates
Cc1ccc(Nc2nccc(N(C)c3ccc4c(C)n(C)nc4c3)n2)cc1S(N)(=O)=O [Pazopanib],Fold-increase of BMP-induced ALP (over BMP alone control),C2C12 cells [1],2.5
"CC(=O)O[C@@]12CO[C@@H]1C[C@H](O)[C@@]1(C)C(=O)[C@H](O)C3=C(C)[C@@H](OC(=O)[C@H](O)[C@@H](NC(=O)OC(C)(C)C)c4ccccc4)C[C@](O)([C@@H](OC(=O)c4ccccc4)[C@H]21)C3(C)C [Docetaxel, (2aR,4S,4aS,6R,9S,11R,12S,12aR,12b S)-12b-acetoxy-9-(((2R,3S)-3-((tert-butoxycarbonyl)amino)-2-hydroxy-3-phenylpropanoyl)oxy)-4,6,11-trihydroxy-4a,8,13,13-tetramethyl-5-oxo-2a,3,4,4a,5,6,9,10,11,12,12a,12b-dodecahydro-1H-7,11-methanocyclodeca[3,4]benzo[1,2-b]oxet-12-yl benzoate]",cell lifting from culture plates,C2C12 cells [1],caused cell lifting from culture plates
CCN(CC)CCOc1ccc(C(=C(Cl)c2ccccc2)c2ccccc2)cc1 [clomid],cell lifting from culture plates,C2C12 cells [1],caused cell lifting from culture plates
